Test results as given in ChEMBL document CHEMBL3797052 (Eur J Med Chem, 2016).

Test system: not listed separately
Test: Antiproliferative activity against human UACC62 cells assessed as growth inhibition after 48 hrs by sulforhodamine B assay
Assay type: functional
Details: UACC-62, 48 h

| SMILES | TGI [µM] |
| --- | --- |
| CNC(=O)c1cc(Oc2ccc(NC(=O)Nc3ccc(Cl)c(C(F)(F)F)c3)cc2)ccn1 [SORAFENIB] | 5.01 |

Same assay, conditions: UACC-62, 48 h, read-out: LC50 (the source's name)

| SMILES | CC50 [µM] |
| --- | --- |
| CNC(=O)c1cc(Oc2ccc(NC(=O)Nc3ccc(Cl)c(C(F)(F)F)c3)cc2)ccn1 [SORAFENIB] | 20 |

Test system: SK-MEL-5
Test: Antiproliferative activity against human SK-MEL-5 cells assessed as growth inhibition after 48 hrs by sulforhodamine B assay
Assay type: functional
Details: SK-MEL-5, 48 h

| SMILES | TGI [µM] |
| --- | --- |
| CNC(=O)c1cc(Oc2ccc(NC(=O)Nc3ccc(Cl)c(C(F)(F)F)c3)cc2)ccn1 [SORAFENIB] | 3.16 |

Same assay, conditions: SK-MEL-5, 48 h, read-out: LC50 (the source's name)

| SMILES | CC50 [µM] |
| --- | --- |
| CNC(=O)c1cc(Oc2ccc(NC(=O)Nc3ccc(Cl)c(C(F)(F)F)c3)cc2)ccn1 [SORAFENIB] | 5.01 |

Test system: M14
Test: Antiproliferative activity against human M14 cells assessed as growth inhibition after 48 hrs by sulforhodamine B assay
Assay type: functional
Details: M14, 48 h

| SMILES | GI50 [µM] | TGI [µM] |
| --- | --- | --- |
| CNC(=O)c1cc(Oc2ccc(NC(=O)Nc3ccc(Cl)c(C(F)(F)F)c3)cc2)ccn1 [SORAFENIB] | 2 | 5.01 |

Same assay, conditions: M14, 48 h, read-out: LC50 (the source's name)

| SMILES | CC50 [µM] |
| --- | --- |
| CNC(=O)c1cc(Oc2ccc(NC(=O)Nc3ccc(Cl)c(C(F)(F)F)c3)cc2)ccn1 [SORAFENIB] | 25.1 |

Test system: not listed separately
Test: Antiproliferative activity against human HCT116 cells assessed as growth inhibition after 48 hrs by sulforhodamine B assay
Assay type: functional
Details: HCT-116, 48 h

| SMILES | TGI [µM] |
| --- | --- |
| CNC(=O)c1cc(Oc2ccc(NC(=O)Nc3ccc(Cl)c(C(F)(F)F)c3)cc2)ccn1 [SORAFENIB] | 3.98 |

Test system: NCI-H322M
Test: Antiproliferative activity against human NCI-H322M cells assessed as growth inhibition after 48 hrs by sulforhodamine B assay
Assay type: functional
Details: not given

| SMILES | GI50 [µM] | TGI [µM] |
| --- | --- | --- |
| CNC(=O)c1cc(Oc2ccc(NC(=O)Nc3ccc(Cl)c(C(F)(F)F)c3)cc2)ccn1 [SORAFENIB] | 2.51 | 10 |

Test system: NCI-H23
Test: Antiproliferative activity against human NCI-H23 cells assessed as growth inhibition after 48 hrs by sulforhodamine B assay
Assay type: functional
Details: NCI-H23, 48 h

| SMILES | GI50 [µM] | TGI [µM] |
| --- | --- | --- |
| CNC(=O)c1cc(Oc2ccc(NC(=O)Nc3ccc(Cl)c(C(F)(F)F)c3)cc2)ccn1 [SORAFENIB] | 2 | 5.01 |

Test system: not listed separately
Test: Antiproliferative activity against human HOP92 cells assessed as growth inhibition after 48 hrs by sulforhodamine B assay
Assay type: functional
Details: HOP-92, 48 h

| SMILES | TGI [µM] |
| --- | --- |
| CNC(=O)c1cc(Oc2ccc(NC(=O)Nc3ccc(Cl)c(C(F)(F)F)c3)cc2)ccn1 [SORAFENIB] | 5.01 |
